Experimental data reported in patent US11873292B2, “Trans-indoline cyclopropylamine chemical compound, and method for preparation, pharmaceutical composition, and use thereof” (Shanghai Institute of Materia Medica, Chinese Academy of …, priority 2016, dated 2024).

Legend:
Human recombinant LSD1 = Human recombinant LSD1 (Homo sapiens (Human), UniProt O60341); experiment: LSD1 in vitro activity assay (LANCE Ultra LSD1 Histone H3-Lysine 4 Demethylase Assay); type: biochemical; settings: LSD1 inhibition
Human recombinant MAOA = Human recombinant MAOA (Homo sapiens (Human), UniProt P21397); experiment: MAOA in vitro activity experiment (MAO-Glo); type: biochemical
Human recombinant MAOA, sequence (P21397 whole entry): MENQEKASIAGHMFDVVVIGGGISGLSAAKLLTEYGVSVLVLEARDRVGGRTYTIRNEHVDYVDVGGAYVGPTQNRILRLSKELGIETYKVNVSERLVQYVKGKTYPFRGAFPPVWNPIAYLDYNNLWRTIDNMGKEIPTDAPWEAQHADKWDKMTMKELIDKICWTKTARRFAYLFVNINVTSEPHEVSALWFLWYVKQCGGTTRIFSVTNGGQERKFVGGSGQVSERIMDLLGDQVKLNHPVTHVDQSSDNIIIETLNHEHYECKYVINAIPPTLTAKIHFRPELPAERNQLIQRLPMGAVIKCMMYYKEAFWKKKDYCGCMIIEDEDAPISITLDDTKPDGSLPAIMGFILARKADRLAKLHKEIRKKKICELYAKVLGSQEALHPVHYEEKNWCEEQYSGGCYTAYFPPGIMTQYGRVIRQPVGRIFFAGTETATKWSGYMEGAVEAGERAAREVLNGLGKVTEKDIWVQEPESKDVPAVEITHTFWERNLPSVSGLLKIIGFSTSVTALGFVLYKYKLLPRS

human recombinant MAOB = human recombinant MAOB (Homo sapiens (Human), UniProt P27338); experiment: MAOB in vitro activity experiment (MAO-Glo); type: biochemical
human recombinant MAOB, sequence (P27338 whole entry): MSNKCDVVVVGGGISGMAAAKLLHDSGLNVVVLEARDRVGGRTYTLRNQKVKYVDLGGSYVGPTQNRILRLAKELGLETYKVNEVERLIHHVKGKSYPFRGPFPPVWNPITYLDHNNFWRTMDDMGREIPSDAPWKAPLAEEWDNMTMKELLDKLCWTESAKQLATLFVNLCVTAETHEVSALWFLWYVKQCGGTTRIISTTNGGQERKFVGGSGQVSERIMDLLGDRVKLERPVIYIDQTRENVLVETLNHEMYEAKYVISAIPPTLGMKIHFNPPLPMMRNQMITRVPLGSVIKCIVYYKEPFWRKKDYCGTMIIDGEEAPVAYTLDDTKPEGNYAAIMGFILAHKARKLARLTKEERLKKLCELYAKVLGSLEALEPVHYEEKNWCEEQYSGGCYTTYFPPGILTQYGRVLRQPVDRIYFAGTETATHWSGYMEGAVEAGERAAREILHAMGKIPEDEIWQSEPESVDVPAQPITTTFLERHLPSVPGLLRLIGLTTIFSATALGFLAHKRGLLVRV

Row | SMILES | IC50 (Human recombinant LSD1) [nM] | melting point [°C] | IC50 (Human recombinant MAOA) [nM] | IC50 (human recombinant MAOB) [nM]
1 | N[C@@H]1C[C@H]1c1ccc2c(c1)CCN2S(=O)(=O)c1ccccc1 (relative stereo) [Compound A1, Trans-2-(1-(phenylsulfonyl)indolin-5-yl)cyclopropylamine] | 1790 ± 88.4 | 190 to 193 | – | –
2 | CC(C)(C)OC(=O)N1CCC(CN[C@@H]2C[C@H]2c2ccc3c(c2)CCN3S(=O)(=O)c2ccccc2)CC1 (relative stereo) [Compound A27, Trans-tert-butyl 4-((2-(1-(phenylsulfonyl)indolin-5-yl)cyclopropylamino)methyl)piperidine-1-carboxylate] | 71.3 ± 4.3 | 60 to 61 | > 100000 | > 100000
3 | O=C(OCc1ccccc1)N1CCC(CN[C@@H]2C[C@H]2c2ccc3c(c2)CCN3S(=O)(=O)c2ccccc2)CC1 (relative stereo) [Compound A28, Trans-benzyl 4-((2-(1-(phenylsulfonyl)indolin-5-yl)cyclopropylamino)methyl)piperidine-1-carboxylate] | 265 ± 80.8 | 90 to 92 | – | –
4 | CC(C)(C)OC(=O)N1CCC(C(=O)N[C@@H]2C[C@H]2c2ccc3c(c2)CCN3S(=O)(=O)c2ccccc2)CC1 (relative stereo) [Compound A29, Trans-tert-butyl 4-(2-(1-(phenylsulfonyl)indolin-5-yl)cyclopropylcarbamoyl)piperidine-1-carboxylate] | 1690 ± 449 | 146 to 148 | – | –
5 | O=S(=O)(c1ccc(C(F)(F)F)cc1)N1CCc2cc([C@@H]3C[C@H]3NCC3CCNCC3)ccc21 (relative stereo) [Compound A34, trans-N-(piperidin-4-ylmethyl)-2-(1-(4-(trifluoromethyl)benzenesulfonyl)indolin-5-yl)cyclopropylamine] | 43.3 ± 5.09 | 217 to 221 | > 100000 | > 100000
6 | O=C(c1ccc(-c2ccccc2)cc1)N1CCc2cc([C@@H]3C[C@H]3NCC3CCNCC3)ccc21 (relative stereo) [Compound A47, Trans-biphenyl-4-yl(5-(2-(piperidin-4-ylmethylamino)cyclopropyl)indolin-1-yl)methanone] | 10.2 ± 1.59 | 179 to 180 | > 100000 | 7330 ± 110
7 | O=C(c1cccc(C(F)(F)F)c1)N1CCc2cc([C@@H]3C[C@H]3NCC3CCNCC3)ccc21 (relative stereo) [Compound A48, Trans-(5-(2-(piperidin-4-ylmethylamino)cyclopropyl)indolin-1-yl)(3-(trifluoromethyl)phenyl) methanone] | 25.57 ± 0.11 | 230 to 232 | > 100000 | 42600 ± 780
8 | O=C(OCc1ccccc1)N1CCc2cc([C@@H]3C[C@H]3NCC3CCNCC3)ccc21 (relative stereo) [Compound A50, Trans-benzyl-5-(2-(piperidin-4-ylmethylamino)cyclopropyl)Indoline-1-carboxylate] | 35.3 ± 3.48 | 215 to 218 | > 100000 | 10700 ± 1220
9 | CC(C)(C)OC(=O)c1ccc(CN2CCC(CNC3CC3c3ccc4c(c3)CCN4S(=O)(=O)c3ccccc3)CC2)cc1 (stereo not drawn) [Compound A25, Trans-tert-butyl 4-((4-(2-(1-(phenylsulfonyl))indolin-5-yl)cyclopropylamino)methyl)piperidin-1-yl)methyl) benzoate] | 534 ± 384 | 62 to 65 | – | –
10 | O=C(O)c1ccc(CN2CCC(CNC3CC3c3ccc4c(c3)CCN4S(=O)(=O)c3ccccc3)CC2)cc1 (stereo not drawn) [Compound A26, Trans-4-((4-(2-(1-(phenylsulfonyl))indolin-5-yl)cyclopropylamino)methyl)piperidin-1-yl) methyl)benzoic acid] | 461 ± 31.9 | 190 to 192 | – | –
